Test results taken from publication PMC8163506, “A novel ATP dependent dimethylsulfoniopropionate lyase in bacteria that releases dimethyl sulfide and acryloyl-CoA” (eLife, 2021).

Biological target: T1, DddX (Psychrobacter sp., UniProt Z9QGV9JXN0)
T1 construct: full length (2247 bp gene), pET-22b, C-terminal His tag, E. coli BL21(DE3); dimer in solution
T1 sequence (Z9QGV9JXN0 1-748): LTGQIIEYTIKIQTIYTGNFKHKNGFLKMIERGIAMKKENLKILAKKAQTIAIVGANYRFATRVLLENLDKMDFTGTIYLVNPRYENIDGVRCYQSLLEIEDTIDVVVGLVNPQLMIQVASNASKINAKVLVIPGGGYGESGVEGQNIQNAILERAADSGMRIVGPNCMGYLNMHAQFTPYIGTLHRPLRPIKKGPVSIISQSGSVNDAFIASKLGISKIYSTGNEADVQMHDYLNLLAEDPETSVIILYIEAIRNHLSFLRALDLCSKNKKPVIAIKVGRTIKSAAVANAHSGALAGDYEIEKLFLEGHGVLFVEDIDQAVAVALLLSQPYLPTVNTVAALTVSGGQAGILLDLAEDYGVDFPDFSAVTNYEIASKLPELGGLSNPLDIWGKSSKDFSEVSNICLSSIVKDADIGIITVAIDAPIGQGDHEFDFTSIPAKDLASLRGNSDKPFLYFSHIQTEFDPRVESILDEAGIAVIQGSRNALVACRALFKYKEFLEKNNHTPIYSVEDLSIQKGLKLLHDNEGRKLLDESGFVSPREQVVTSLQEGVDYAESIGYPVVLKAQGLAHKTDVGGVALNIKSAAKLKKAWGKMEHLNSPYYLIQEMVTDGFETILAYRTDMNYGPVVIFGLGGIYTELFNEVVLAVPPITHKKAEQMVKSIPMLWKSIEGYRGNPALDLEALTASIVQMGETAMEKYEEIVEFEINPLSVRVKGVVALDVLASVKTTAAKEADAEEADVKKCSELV
Test: X-ray crystal structure of complex
Format: binding
Conditions: 1 mM ATP incubated with protein; ATP-grasp domain; crystals at pH 5.5, 18 °C

Nc1ncnc2c1ncn2[C@@H]1O[C@H](COP(=O)(O)OP(=O)(O)OP(=O)(O)O)[C@@H](O)[C@H]1O [ATP]
X-ray crystal structure of complex: we solved the crystal structure of DddX in complex with ATP
